Patent publication US7592350B2, “Polycyclic compounds as potent alpha2-adrenoceptor antagonists” (Orion Corporation, priority 2002, dated 2009)
Read-outs that look alike come from different tables or passages of the source.

Experiments:
alpha2A-adrenoceptor [1] = molecular target: T1, alpha2A-adrenoceptor (Homo sapiens, UniProt P08913); test: Radioligand binding to alpha2-adrenoceptors (alpha2A); conditions: calculated Ki from radioligand binding assays; read-out: Binding affinity (Ki) alpha2A
T1 sequence (P08913 1-465): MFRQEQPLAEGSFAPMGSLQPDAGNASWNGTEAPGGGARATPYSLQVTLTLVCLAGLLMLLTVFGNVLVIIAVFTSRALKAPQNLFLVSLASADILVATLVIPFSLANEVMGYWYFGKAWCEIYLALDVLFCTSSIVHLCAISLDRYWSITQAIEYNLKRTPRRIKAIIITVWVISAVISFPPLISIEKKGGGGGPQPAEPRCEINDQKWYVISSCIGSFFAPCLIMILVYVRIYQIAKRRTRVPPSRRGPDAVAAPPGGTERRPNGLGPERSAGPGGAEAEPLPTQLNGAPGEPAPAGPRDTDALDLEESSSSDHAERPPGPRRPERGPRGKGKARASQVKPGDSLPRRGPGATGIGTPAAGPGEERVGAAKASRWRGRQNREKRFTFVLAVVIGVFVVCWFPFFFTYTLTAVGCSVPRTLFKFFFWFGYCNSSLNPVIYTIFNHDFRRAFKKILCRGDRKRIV

alpha2C-adrenoceptor [2] = molecular target: T2, alpha2C-adrenoceptor (Homo sapiens, UniProt P18825); test: Radioligand binding to alpha2-adrenoceptors (alpha2C)
T2 sequence (P18825 1-462): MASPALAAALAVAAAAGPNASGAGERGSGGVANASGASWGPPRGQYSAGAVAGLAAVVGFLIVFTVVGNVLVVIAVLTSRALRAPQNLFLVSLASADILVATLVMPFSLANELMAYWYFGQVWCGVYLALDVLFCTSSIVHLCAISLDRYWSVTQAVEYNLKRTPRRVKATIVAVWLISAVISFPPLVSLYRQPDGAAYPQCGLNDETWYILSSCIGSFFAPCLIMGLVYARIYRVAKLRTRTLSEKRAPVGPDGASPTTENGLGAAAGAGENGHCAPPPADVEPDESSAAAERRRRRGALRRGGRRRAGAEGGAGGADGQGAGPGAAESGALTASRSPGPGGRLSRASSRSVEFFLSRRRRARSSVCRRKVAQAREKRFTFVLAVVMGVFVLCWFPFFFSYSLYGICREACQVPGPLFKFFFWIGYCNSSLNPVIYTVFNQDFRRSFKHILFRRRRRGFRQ

alpha2B-adrenoceptor [3] = molecular target: T3, alpha2B-adrenoceptor (Homo sapiens, UniProt P18089); test: Radioligand binding to alpha2-adrenoceptors (alpha2B); conditions: calculated Ki from radioligand binding assays; read-out: Binding affinity (Ki) alpha2B
T3 sequence (P18089 1-450): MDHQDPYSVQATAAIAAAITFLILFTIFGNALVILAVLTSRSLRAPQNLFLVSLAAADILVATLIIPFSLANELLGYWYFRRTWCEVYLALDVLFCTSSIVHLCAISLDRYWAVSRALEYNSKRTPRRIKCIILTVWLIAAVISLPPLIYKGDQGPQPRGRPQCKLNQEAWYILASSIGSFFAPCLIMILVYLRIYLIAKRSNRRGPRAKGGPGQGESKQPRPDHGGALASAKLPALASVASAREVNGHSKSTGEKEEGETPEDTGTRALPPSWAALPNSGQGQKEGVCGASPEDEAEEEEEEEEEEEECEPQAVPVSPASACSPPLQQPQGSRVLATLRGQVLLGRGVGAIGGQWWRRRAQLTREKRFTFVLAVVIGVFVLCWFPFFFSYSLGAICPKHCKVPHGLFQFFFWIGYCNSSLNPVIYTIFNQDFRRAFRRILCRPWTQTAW
Excerpt: Examples of the alpha2-adrenoceptor binding affinities of the compounds including in the present invention are shown in the Table 1. Many of these compouinds are high-affinity ligands for all the alpha2-receptors, but some of them display selectivity for the alpha2C-subtype.

mice = test: Antagonism of alpha2-agonist (dexmedetomidine)-induced sedation; type: in vivo; conditions: dexmedetomidine 50 nmol/kg s.c., antagonist pre-treatment
Protocol: (veh=vehicle). (***p<0.001, compared to Dex+vehicle)
One of the prominent effects of non-selective alpha2-agonists in rodents is their ability to cause profound sedation. This effect, measured as locomotor inhibition by the alpha2-agonist dexmedetomidine was not modified in mice with genetically altered alpha2C-expression (Scheinin, M. et al., Life Sci 68(19-20) (2001) 2277-85). […] This assumption was tested in experiment, where dexmedetomidine was administered to mice pre-treated with the alpha2C-antagonists compound K or compound L, or the subtype non-selective antagonist atipamezole (Haapalinna, A. et al., Naunyn-Schmiedeberg's Arch. Pharmacol. 356 (1997) 570-582).

rats [4] = test: Forced swimming test; type: in vivo; conditions: compared to vehicle
Protocol: Forced swimming test (FST, i.e. Porsolt's test) is generally used in the pharmacological screening of new-antidepressants. In this test, antidepressants increase the animals' activity compared to non-treated controls. […] Therefore, it was tested, whether a selective alfa2C-antagonist would have antidepressant-like activity (e.g. activity-increasing property) in the FST. […] Also the positive control substances desipramine and fluoxetine (clinically effective antidepressant agents) were active.

alpha2A-adrenoceptor [5] = molecular target: T1, alpha2A-adrenoceptor; test: Inhibition of epinephrine-stimulated 35S-GTPγS binding, CHO cell membranes (alpha2A); type: biochemical; parameters: expressed in transfected cells; host or cells: CHO cells (membranes); conditions: mean, read-out: Antagonist potency (KB) alpha2A
Protocol: (§1) The functional activities of two compounds (K and L) displaying alpha2C-selectivity in binding experiments were determined as the abilities of the compounds to inhibit the epinephrine-stimulated binding of ^35S-GTPγS to G proteins (Jasper, J. R. et al., Biochem. Pharmacol. 55(7) (1998) 103544) in membranes of CHO cells stably transfected with the human alpha2-adrenoceptor subtypes.

alpha2B-adrenoceptor [6] = molecular target: T3, alpha2B-adrenoceptor; test: Inhibition of epinephrine-stimulated 35S-GTPγS binding, CHO cell membranes (alpha2B); type: biochemical; parameters: expressed in transfected cells; host or cells: CHO cells (membranes); conditions: mean, read-out: Antagonist potency (KB) alpha2B
Protocol: as §1

alpha2C-adrenoceptor [7] = molecular target: T2, alpha2C-adrenoceptor; test: Inhibition of epinephrine-stimulated 35S-GTPγS binding, CHO cell membranes (alpha2C); type: biochemical; parameters: expressed in transfected cells; host or cells: CHO cells (membranes); conditions: mean, read-out: Antagonist potency (KB) alpha2C
Protocol: as §1

rats [8] = test: Prepulse inhibition of the startle reflex; type: in vivo
Protocol: FIGS. 4a and 4b show the effect of compounds K and L on the startle reflex and its prepulse inhibition in rats. (Veh=vehicle). Asterisks as in FIG. 1; comparisons were performed between PCP (phencyclidine)+vehicle and PCP+compounds K and L.
FIGS. 5a and 5b show the effect of the non-selective antagonist atiparnezole (ati) on the startle reflex and its prepulse inhibition in rats in the prescence of phencyclidine (PCP); (veh=vehicle). Asterisks as in FIG. 1, compared to the vehicle+PCP -group.
Prepulse-inhibition (PPI) of a startle response refers to the reduction in the startle response caused by a low intensity non-startling stimulus (the prepulse) which is presented shortly before the startle stimulus. PPI can be used as an operational measure of sensorimotor gating and appears to be present in all mammals, including rats and humans (Swerdlow, N. R. et al., The archives of general psychiatry 51 (1994) 139-154). Normally finctioning PPI can be disrupted by psychostimulants, such as d-amphetamine or phencyclidine (PCP), and reversed by clinically effective antipsychotics.
This hypothesis was tested with compounds K and L alone and against PCP disruption of the PPI. […]

[9] = calculated Ki from radioligand binding assays, read-out: Binding affinity (Ki) alpha2C

SMILES | Ki (alpha2A-adrenoceptor [1]) | Ki (alpha2C-adrenoceptor [2]; [9]) | Ki (alpha2B-adrenoceptor [3]) | further results
C[C@@H]1CCCN2CCc3c(oc4ccccc34)[C@@H]12 (relative stereo) [Compound G, 1-Methyl-1α,3,4,6,11bβ-hexahydro-2H-11-oxa4a-aza-benzo[a]fluorene] | 96 nM | 22 nM |  | 
C[C@@]1(O)CCCN2CCc3c([nH]c4ccccc34)[C@H]21 (relative stereo) [Compound H, 1α-Methyl-1,2,3,4,6,7,12,12bβ-octahydroindolo[2,3-a]quinolizin-1-ol] | 280 nM | 23 nM | 45 nM | 
CC[C@@H]1CCCN2CCc3c([nH]c4ccccc34)[C@@H]12 (relative stereo) [Compound J, 1β-ethyl-1,2,3,4,6,7,12,12bβ-octabydroindolo[2,3-a]quinolizine] | 210 nM | 75 nM | 520 nM | 
CC[C@]1(CO)CCCN2CCc3c([nH]c4ccccc34)[C@@H]21 (relative stereo) [Compound L] | 85 nM | 18 nM | 20 nM | Antagonism of dexmedetomidine-induced sedation (locomotor inhibition) (mice): did not have clear effects; Activity in the forced swimming test (rats [4]; 3 micromol/kg): increased activity; Kb (alpha2A-adrenoceptor [5]): 320 nM; Kb (alpha2B-adrenoceptor [6]): 75 nM; Kb (alpha2C-adrenoceptor [7]): 4.2 nM
CC[C@]1(CO)CCCN2CCc3c([nH]c4ccccc34)[C@H]21 (relative stereo) [Compound M, (1β-Ethyl-1,2,3,4,6,7,12,12bβ-octahydroindolo[2,3-a]quinolizin-1-yl)-methanol] | 440 nM | 110 nM | 470 nM | 
OC[C@H]1CCCN2CCc3c([nH]c4ccccc34)[C@H]12 (relative stereo) [Compound O, (1β,2,3,4,6,7,12,12bα-Octahydroindolo’[2,3-a]quinolizin-1-yl)-methanol] | 380 nM | 110 nM | 270 nM | 
CC(C)(C)[C@@H]1CCN2CCc3c([nH]c4ccccc34)[C@@H]2C1 (relative stereo) [Compound Q, 2β-tert-butyl-1,2,3,4,6,7,12,12bα-octahydro-indolo[2,3-a]quinolizine] | 27 nM | 6.4 nM | 40 nM | 
CC(C)C1(O)CCCN2CCc3c([nH]c4ccccc34)C21 (stereo not drawn) [Compound A, 1α-Isopropyl-1,2,3,4,6,7,12,12bβ-octahydroindolo[2,3-a]quinolizin-1-ol] | 480 nM | 61 nM | 330 nM | 
CCC1(O)C(C)CCN2CCc3c([nH]c4ccccc34)C21 (stereo not drawn) [Compound B, 1α-Ethyl-2α-methyl-1,2,3,4,6,7,12,12bβ-octahydro-indolo[2,3-a]quinoulzin-1-ol] | 130 nM | 25 nM | 160 nM | 
CCC(C)C1(O)CCCN2CCc3c([nH]c4ccccc34)C21 (stereo not drawn) [Compound C, 1-s-Butyl-1,2,3,4,6,7,12,12bβ-octahydro-indolo[2,3-a]quinolizin-1-ol] | 710 nM | 87 nM | 580 nM | 
COC1CCN2CCc3c([nH]c4ccccc34)C2C1 (stereo not drawn) [Compound D, 2α-Methoxy-1,2,3,4,6,7,12,12bα-octahydro-indolo[2,3-a]quinolizine] | 29 nM | 17 nM | 81 nM | 
c1ccc2c3c([nH]c2c1)C1CCCCCN1CC3 (stereo not drawn) [Compound E, 2,3,4,5,7,8,13,13b-Octahydro-1H-azepino[1′,2′1,2]pyrido[3,4-b]indole] | 30 nM | 26 nM | 110 nM | 
OC12CCCCC1CCN1CCc3c([nH]c4ccccc34)C12 (stereo not drawn) [Compound F, 2,3,4,4aβ,5,6,7,8,13,13bβ-Decahydro-1H-6a,13-diaza-indeno[1,2-c]phenanthren-13cβ-ol] | 514 nM | 70 nM |  | 
C1=CCN2CCc3c([nH]c4ccccc34)C2C1 (stereo not drawn) [Compound I, 1,4,6,7,12,12b-Hexahdroindolo[2,3-a]quinolizine] | 150 nM |  | 460 nM | Ki (alpha2C-adrenoceptor [2]): 85 nM
CCC1=C(C)CC2c3[nH]c4ccccc4c3CCN2C1 (stereo not drawn) [Compound N, 3-Ethyl-2-methyl-1,4,6,7,12,12b-hexahydro-indolo[2,3-a]quinolizine] | 130 nM | 46 nM | 1110 nM | 
CC(O)C1CCCN2CCc3c([nH]c4ccccc34)C12 (stereo not drawn) [Compound P, 1-(1α2,3,4,6,7,12 12bβ-Octahydroindolo[2,3-a]quinolizin-1-yl)-ethanol] | 290 nM | 90 nM | 410 nM | 
CCC1(c2cnc[nH]2)Cc2ccccc2C1 [atipamezole] |  |  |  | Antagonism of dexmedetomidine-induced sedation (locomotor inhibition) (mice): effectively antagonised the effect of dexmedetomidine; Activity in the forced swimming test (rats [4]; 10 micromol/kg): did not possess antidepressant-like effect; Effect on prepulse inhibition (PPI) disrupted by PCP (rats [8]; antagonist 20 min, PCP 10 min before measurement): did not enhance PPI; Effect on startle reflex per se (startle without prepulses) (rats [8]; in the presence of PCP): increased the startle reflex per se
CNCCCN1c2ccccc2CCc2ccccc21 [desipramine] |  |  |  | Activity in the forced swimming test (rats [4]; 10 micromol/kg): increased activity
CNCCC(Oc1ccc(C(F)(F)F)cc1)c1ccccc1 (stereo not drawn) [fluoxetine] |  |  |  | Activity in the forced swimming test (rats [4]; 10 micromol/kg): increased activity
